PubChem BioAssay (NCI)
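Where inhibition never reached the appropriate level, the endpoint shown equals the highest concentration tested. Otherwise, values were interpolated linearly from a five-concentration, 48-hour dose response in 96-well plates. GI50 is the concentration that inhibits growth by half. TGI: concentration producing complete growth inhibition.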

Assays:
Test in all cases: growth of human tumour cells (NCI), 48 h
HT29 colon = test system: HT29 colon
M14 melanoma = test system: M14 melanoma
786-0 renal = test system: 786-0 renal
NCI/ADR-RES ovarian = test system: NCI/ADR-RES ovarian
SR leukemia = test system: SR leukemia
SK-MEL-28 melanoma = test system: SK-MEL-28 melanoma
MDA-MB-435 = test system: MDA-MB-435
SF-268 CNS = test system: SF-268 CNS
HOP-62 NSCLC = test system: HOP-62 NSCLC
KM12 colon = test system: KM12 colon
EKVX NSCLC = test system: EKVX NSCLC
PC-3 prostate = test system: PC-3 prostate
T-47D breast = test system: T-47D breast
SNB-75 CNS = test system: SNB-75 CNS
LOX IMVI melanoma = test system: LOX IMVI melanoma
UACC-62 melanoma = test system: UACC-62 melanoma
UO-31 renal = test system: UO-31 renal
HOP-92 NSCLC = test system: HOP-92 NSCLC
SN12C renal = test system: SN12C renal
HS 578T breast = test system: HS 578T breast
A549 NSCLC = test system: A549 NSCLC
IGROV1 ovarian = test system: IGROV1 ovarian
SF-539 CNS = test system: SF-539 CNS
OVCAR-4 ovarian = test system: OVCAR-4 ovarian
MOLT-4 leukemia = test system: MOLT-4 leukemia
RXF 393 renal = test system: RXF 393 renal
CAKI-1 renal = test system: CAKI-1 renal
SF-295 CNS = test system: SF-295 CNS
OVCAR-8 ovarian = test system: OVCAR-8 ovarian
DU-145 prostate = test system: DU-145 prostate
MALME-3M melanoma = test system: MALME-3M melanoma
NCI-H522 lung = test system: NCI-H522 lung
SK-MEL-2 melanoma = test system: SK-MEL-2 melanoma
U251 CNS = test system: U251 CNS
SK-OV-3 ovarian = test system: SK-OV-3 ovarian
TK-10 renal = test system: TK-10 renal
BT-549 breast = test system: BT-549 breast
ACHN renal = test system: ACHN renal
HCT-116 colon = test system: HCT-116 colon
HCC-2998 colon = test system: HCC-2998 colon
MDA-MB-231 breast = test system: MDA-MB-231 breast
A498 renal = test system: A498 renal
MCF7 breast = test system: MCF7 breast
UACC-257 melanoma = test system: UACC-257 melanoma
K-562 leukemia = test system: K-562 leukemia
SK-MEL-5 melanoma = test system: SK-MEL-5 melanoma
COLO 205 colon = test system: COLO 205 colon
SW-620 colon = test system: SW-620 colon
OVCAR-5 ovarian = test system: OVCAR-5 ovarian
NCI-H460 lung = test system: NCI-H460 lung
NCI-H226 lung = test system: NCI-H226 lung
RPMI-8226 leukemia = test system: RPMI-8226 leukemia
SNB-19 CNS = test system: SNB-19 CNS
HL-60(TB) leukemia = test system: HL-60(TB) leukemia

COc1cc(NC2=C(Cl)C(=O)c3nc(C)ccc3C2=O)cc(OC)c1
GI50 (HT29 colon): 1.87 µM
TGI (HT29 colon): 3.48 µM
GI50 (M14 melanoma): 1.69 µM
TGI (M14 melanoma): 3.09 µM
GI50 (786-0 renal): 1.52 µM
TGI (786-0 renal): 2.88 µM
GI50 (NCI/ADR-RES ovarian): 1.81 µM
TGI (NCI/ADR-RES ovarian): 4.47 µM
GI50 (SR leukemia): 0.35 µM
TGI (SR leukemia): 2.43 µM
GI50 (SK-MEL-28 melanoma): 1.79 µM
TGI (SK-MEL-28 melanoma): 3.23 µM
GI50 (MDA-MB-435): 1.72 µM
TGI (MDA-MB-435): 3.57 µM
GI50 (SF-268 CNS): 3.25 µM
TGI (SF-268 CNS): 14.4 µM
GI50 (HOP-62 NSCLC): 4.26 µM
TGI (HOP-62 NSCLC): 14.1 µM
GI50 (KM12 colon): 13 µM
TGI (KM12 colon): 26.6 µM
GI50 (EKVX NSCLC): 1.6 µM
TGI (EKVX NSCLC): 3.12 µM
GI50 (PC-3 prostate): 2.56 µM
TGI (PC-3 prostate): 10.4 µM
GI50 (T-47D breast): 1.5 µM
TGI (T-47D breast): 3.62 µM
GI50 (SNB-75 CNS): 1.94 µM
TGI (SNB-75 CNS): 5.37 µM
GI50 (LOX IMVI melanoma): 1.1 µM
TGI (LOX IMVI melanoma): 2.32 µM
GI50 (UACC-62 melanoma): 1.77 µM
TGI (UACC-62 melanoma): 3.42 µM
GI50 (UO-31 renal): 1.69 µM
TGI (UO-31 renal): 3.06 µM
GI50 (HOP-92 NSCLC): 1.73 µM
TGI (HOP-92 NSCLC): 3.17 µM
GI50 (SN12C renal): 1.71 µM
TGI (SN12C renal): 3.25 µM
GI50 (HS 578T breast): 2.43 µM
TGI (HS 578T breast): 5.78 µM
GI50 (A549 NSCLC): 2.83 µM
TGI (A549 NSCLC): 8.97 µM
GI50 (IGROV1 ovarian): 1.73 µM
TGI (IGROV1 ovarian): 3.55 µM
GI50 (SF-539 CNS): 1.79 µM
TGI (SF-539 CNS): 3.22 µM
GI50 (OVCAR-4 ovarian): 1.4 µM
TGI (OVCAR-4 ovarian): 2.82 µM
GI50 (MOLT-4 leukemia): 1.5 µM
TGI (MOLT-4 leukemia): 7 µM
GI50 (RXF 393 renal): 1.63 µM
TGI (RXF 393 renal): 2.99 µM
GI50 (CAKI-1 renal): 1.76 µM
TGI (CAKI-1 renal): 3.15 µM
GI50 (SF-295 CNS): 1.99 µM
TGI (SF-295 CNS): 5.41 µM
GI50 (OVCAR-8 ovarian): 1.64 µM
TGI (OVCAR-8 ovarian): 3.28 µM
GI50 (DU-145 prostate): 1.84 µM
TGI (DU-145 prostate): 3.55 µM
GI50 (MALME-3M melanoma): 1.76 µM
TGI (MALME-3M melanoma): 3.28 µM
GI50 (NCI-H522 lung): 1.56 µM
TGI (NCI-H522 lung): 3.06 µM
GI50 (SK-MEL-2 melanoma): 1.59 µM
TGI (SK-MEL-2 melanoma): 3.1 µM
GI50 (U251 CNS): 1.92 µM
TGI (U251 CNS): 4.44 µM
GI50 (SK-OV-3 ovarian): 12.6 µM
TGI (SK-OV-3 ovarian): 25.1 µM
GI50 (TK-10 renal): 2.32 µM
TGI (TK-10 renal): 3.78 µM
GI50 (BT-549 breast): 1.97 µM
TGI (BT-549 breast): 3.4 µM
GI50 (ACHN renal): 1.67 µM
TGI (ACHN renal): 3.04 µM
GI50 (HCT-116 colon): 1.53 µM
TGI (HCT-116 colon): 2.88 µM
GI50 (HCC-2998 colon): 1.81 µM
TGI (HCC-2998 colon): 3.26 µM
GI50 (MDA-MB-231 breast): 1.46 µM
TGI (MDA-MB-231 breast): 3.08 µM
GI50 (A498 renal): 2.35 µM
TGI (A498 renal): 11.4 µM
GI50 (MCF7 breast): 1.82 µM
TGI (MCF7 breast): 5.33 µM
GI50 (UACC-257 melanoma): 1.51 µM
TGI (UACC-257 melanoma): 2.85 µM
GI50 (K-562 leukemia): 0.381 µM
TGI (K-562 leukemia): > 100 µM
GI50 (SK-MEL-5 melanoma): 1.62 µM
TGI (SK-MEL-5 melanoma): 2.97 µM
GI50 (COLO 205 colon): 1.68 µM
TGI (COLO 205 colon): 3.08 µM
GI50 (SW-620 colon): 1.76 µM
TGI (SW-620 colon): 3.47 µM
GI50 (OVCAR-5 ovarian): 2.38 µM
TGI (OVCAR-5 ovarian): 5.79 µM
GI50 (NCI-H460 lung): 2.68 µM
TGI (NCI-H460 lung): 8.07 µM
GI50 (NCI-H226 lung): 2.82 µM
TGI (NCI-H226 lung): 8.35 µM
GI50 (RPMI-8226 leukemia): 1.79 µM
TGI (RPMI-8226 leukemia): 5.19 µM
GI50 (SNB-19 CNS): 5.82 µM
TGI (SNB-19 CNS): 18.8 µM
GI50 (HL-60(TB) leukemia): 1.38 µM
TGI (HL-60(TB) leukemia): 4.65 µM

NC(N)=Nc1ccc(Oc2cccc(Oc3ccc(Cl)c(C(F)(F)F)c3)c2)cn1
GI50 (SNB-75 CNS): 1.33 µM
TGI (SNB-75 CNS): 2.67 µM
GI50 (RXF 393 renal): 1.79 µM
TGI (RXF 393 renal): 3.43 µM
